Calls of active or inactive are those of the source. No rule for the calls is given here.
Experiments:
[1] = test system: Mycobacterium tuberculosis log-phase replicating growth inhibition; experiment: growth inhibition of replicating M. tuberculosis, dose response, counter-screen, log phase (AID 651851)
[2] = as above; details: Mycobacterium tuberculosis log-phase replicating growth inhibition

Q: With O=S(Cc1cn(Cc2ccc(F)cc2)nn1)c1nnc(-c2ccc(Cl)cc2)o1 (stereo not drawn) as the compound, how does the IC90 [1] read?
A: 62 µM

Q: For O=S(=O)(Cc1cn(Cc2ccccc2)nn1)c1nnc(-c2ccc(Cl)cc2)o1, which IC90 [1] is on record?
A: 62 µM

Q: With O=S(Cc1cn(Cc2ccccc2)nn1)c1nnc(-c2ccc(Cl)cc2)o1 (stereo not drawn) as the compound, how does the IC90 [1] read?
A: 62 µM

Q: Which outcome [2] does the source give for Fc1ccc(Cn2cc(CSc3nnc(-c4ccc(Cl)cc4)o3)nn2)cc1 here?
A: inactive

Q: Which IC90 [1] does the source give for c1ccc(CSc2nnc(-c3ccccc3)o2)cc1 here?
A: 250 µM

Q: Which IC90 [1] does the source give for O=S(=O)(Cc1ccccc1)c1nnc(-c2ccccc2)o1 here?
A: 62 µM

Q: With O=S(Cc1ccccc1)c1nnc(-c2ccccc2)o1 (stereo not drawn) as the compound, how does the IC90 [1] read?
A: 31 µM

Q: For Clc1ccc(-c2nnc(SCc3cn(Cc4ccccc4)nn3)o2)cc1, which outcome [2] is on record?
A: inactive
